# According to patent EP2902035B1, “Cell-permeable peptide inhibitors of the JNK signal transduction pathway for use in the treatment of inflammatory eye diseases” (Xigen Inflammation Ltd., priority 2010, dated 2012):
# Assays:
# Assay type in all cases: in vivo, Lewis rats
# [1] = tested on: Endotoxin-Induced Uveitis (EIU); assay: Scoring of Endotoxin-Induced Uveitis (EIU) by slit lamp; settings: intravitreous (IVT) administration at LPS challenge (SEQ ID NO: 11: 0.2 µg/injection); scored at 24 hours on a scale from 0 to 5; mean ± SEM
# Method: For intravenous (IV) injection, 100 µL of saline (NaCl 0.9%) or the JNK-inhibitor (poly-)peptide of SEQ ID NO: 11 (20 µg/kg in saline) were injected in a tail vein using a 25G-needle connected on a 1 mL syringe (Becton Dickinson, France). For intravitreous (IVT) injection, 5 µL of saline or the JNK-inhibitor (poly-)peptide of SEQ ID NO: 11 (0.2 µg/injection in saline) were injected in both eyes using a 30G disposable needle (BD-microfine syringe, nm Médical, Asnière, France). The IV dose of 20 µg/kg (i.e. 3.5 µg/rat in rats weighing 175g) was chosen according to studies showing that the JNK-inhibitor (poly-)peptide of SEQ ID NO: 11 is active at very low doses in other models. For intravitreous injections, the inventors used the minimal dose used in direct ear application after acute noise trauma in patients. This corresponds to 5% of the dose injected intravenously. […]
# In a first set of experiment, 70 rats were randomized into 14 experimental groups with 5 rats per group. […] Clinical ocular inflammation was recorded only at 24 hours (see Scoring of Endotoxin-Induced Uveitis (EIU) section). […]
# Animals were examined by slit lamp at 24 hours, the clinical peak of the disease in our experiments. The intensity of clinical ocular inflammation was scored on a scale from 0 to 5 for each eye as described previously 10: grade (0) indicates no inflammation; grade (1) indicates the presence of a minimal iris and conjunctival vasodilation but without the observation of flare or cells in the anterior chamber (AC); grade (2) indicates the presence of moderate iris and conjunctival vessel dilation but without evident flare or cells in the AC; grade (3) indicates the presence of intense iris vessels dilation, flare and less than 10 cells per slit lamp field in the AC; grade (4) indicates the presence of more severe clinical signs than grade 3, with more than 10 cells in the AC with or without the formation of a hypopion; grade (5) indicates the presence of intense inflammatory reaction, fibrin formation in the AC and total seclusion of the pupil. […]
# [2] = tested on: ED1 positive cells; assay: Quantification of infiltrating ED1 positive cells on histological sections in EIU; settings: IVT injection (SEQ ID NO: 11: 0.2 µg/injection); 24 hours after LPS challenge; mean ± SEM
# Method: (§1) For immunohistochemistry, eyeballs were collected and fixed for 1h at room temperature in phosphate buffered saline (PBS) containing 4% paraformaldehyde before being rinsed overnight in PBS. The next day, samples were embedded and frozen in optimal cutting-temperature (OCT) compound (Tissue-Tek®, Sakura Finetek, Zoeterwoude, Netherland) and stored at -80°C. Frozen antero-posterior sections of eyes (10 µm thick) were performed at the optic nerve level using a cryostat (Leica CM 3050S, Rueil-Malmaison, France) and mounted on super-frost slides for immunohistochemical analysis.
# (§2) A second set of experiment was designed to evaluate the anti-inflammatory effect of the JNK-inhibitor (poly-)peptide of SEQ ID NO: 11 at the cellular and tissue level as well as the biodistribution of this molecule 24 hours after administration. Rats were randomized into 11 experimental groups. 6 groups of rats with uveitis: untreated uveitic rats, rats injected intravenously with NaCl or the JNK-inhibitor (poly-)peptide of SEQ ID NO: 11 and rats injected intravitreously with the vehicle, the JNK-inhibitor (poly-)peptide of SEQ ID NO: 11 or dexamethasone. The 5 additional groups without uveitis were: untreated healthy rats, rats treated by NaCl IV or the JNK-inhibitor (poly-)peptide of SEQ ID NO: 11 IV and rats injected IVT with NaCl or the JNK-inhibitor (poly-)peptide of SEQ ID NO: 11. Three eyes from separate rats were collected per group and used for immunohistochemistry.
# (§3) To characterize the cellular infiltrate, sections were double-stained with ED1 and iNOS. […] After staining nuclei with DAPI (Sigma-Aldrich, Saint-Quentin Fallavier, France), sections were mounted in PBS/Glycerol (1/1) and observed by fluorescence photomicroscopy (FXA, Microphot, Nikon, Melville, USA). […] ED1 positive cells and polymorphonuclear cells, identified by the shape of their nuclei stained with DAPI, were quantified on histological sections. […] Results were expressed as mean ± standard error of the mean (SEM).
# [3] = tested on: polymorphonuclear cells (PMN); assay: Quantification of infiltrating polymorphonuclear cells on histological sections in EIU; settings: IVT injection (SEQ ID NO: 11: 0.2 µg/injection); at 24 hours; mean ± SEM
# Method: as §1, §2, §3
substance,measurement,setting,value
Dexamethasone sodium phosphate,EIU clinical scores,[1],1.8 ± 0.4 A.U.
same,number of ED1 positive infiltrating cells,[2],79 ± 15
same,number of polymorphonuclear cells (PMN),[3],42 ± 11
